The record followed here is patent US10301277B2, “Substituted ureas and methods of treating mental illness using the same” (ZHEJIANG JINGXIN PHARMACEUTICAL CO., LTD., priority 2016, dated 2019).

This assay relates to MK-801-induced schizophrenia model. Description: MK-801-induced schizophrenia model, open field running behavior. The settings on record: for inhibition of high spontaneous activity of MK-801-induced rats: dose of 0.3 mg/kg, compared with MK-801 model control; for Total Distance within 61-150 minutes / Improvement Rate: single oral administration 0.3 mg/kg; for Total Distance within 61-150 minutes: MK-801 0.3 mg/kg i.p., x ± SD; for Improvement Rate: versus MK-801 model control. The format is in vivo, Sprague-Dawley rats. On the procedure: (I) Modeling of MK-801-Induced Schizophrenia in Mice
Each rat was placed in a soundproof box for 30 minutes on the day before the test to adapt. On the next day, each rat was administrated with the respective test compounds, and after 30 minutes, administrated intraperitoneally with a 0.3 mg/kg MK-801 solution at 5.0 mL/kg body weight of the rat to build a model of MK-801-induced schizophrenia in mice.
(II) Observation of Open Field Running Behavior
Mice were administered with MK-801 and then immediately placed in the soundproof box. The total distances of motion of mice within 2.5 hours were observed and recorded. Improvement rate=(total distance of model control−total distance of administration)/(total distance of model control)×100%. (III) Statistical Method
All the data was expressed with x±SD and processed by SPSS17.0 software statistical package. T-test and one-way analysis of variance were performed to compare the mean of two samples, with P<0.05 as significant difference.

Take `CN(C)C(=O)N[C@H]1CC[C@H](CCN2CCN(c3cccc4sccc34)CC2)CC1` [Compound 1, N′-[trans-4-[2-[4-(benzo[b]thiophene)-7-piperazinyl]ethyl]cyclohexyl]-N,N-dimethylurea]: the “inhibition of high spontaneous activity of MK-801-induced rats” value (“inhibition” below) is given as “significantly inhibit”, the “Total Distance within 61-150 minutes” value is given as 73.09 ± 11.7 m and the “Improvement Rate” value amounted to 76.41%.

Consider `CN(C)C(=O)N[C@H]1CC[C@H](CCN2CCN(c3cccc4ccsc34)CC2)CC1` [Compound 2, N′-[trans-4-[2-[7-(benzo[b]thiophene)-7-piperazinyl]ethyl]cyclohexyl]-N,N-dimethylurea], for which the “inhibition” value is given as “significantly inhibit”, the “Total Distance within 61-150 minutes” value stood at 46.95 ± 10.3 m and the “Improvement Rate” value is listed as 84.84%.

In the case of `CN(C)C(=O)N[C@H]1CC[C@H](CCN2CCN(c3cccc4cscc34)CC2)CC1` [Compound 3, N′-[trans-4-[2-[4-(benzo[c]thiophene)-7-piperazinyl]ethyl]cyclohexyl]-N,N-dimethylurea], the “inhibition” value is reported as “significantly inhibit”, the “Total Distance within 61-150 minutes” value came out at 63.79 ± 10.8 m and the “Improvement Rate” value was determined as 79.41%.

For `CN(C)C(=O)N[C@H]1CC[C@H](CCN2CCN(c3nsc4ccccc34)CC2)CC1` [Compound 4, N′-[trans-4-[2-[4-(benzo[d]isothiazolyl)-3-piperazinyl]ethyl]cyclohexyl]-N,N-dimethylurea], the “Total Distance within 61-150 minutes” value is 232.18 ± 20.3 m and the “Improvement Rate” value worked out at 25.05%.

For the compound `CN(C)C(=O)N[C@H]1CC[C@H](CCN2CCN(c3noc4cc(F)ccc34)CC2)CC1` [Compound 5, N′-[trans-4-[2-[4-(6-fluoro-benzo[d]isoxazol)-3-piperazinyl]ethyl]cyclohexyl]-N,N-dimethylurea], the “inhibition” value is recorded as “significantly inhibit”, the “Total Distance within 61-150 minutes” value was 5.43 ± 1.7 m and the “Improvement Rate” value is 98.25%.

As to `CN(C)C(=O)N[C@H]1CC[C@H](CCN2CCN(c3ccc4c(Cl)noc4c3)CC2)CC1` [Compound 6, N′-[trans-4-[2-[4-(3-chloro-benzo[d]isoxazol)-6-piperazinyl]ethyl]cyclohexyl]-N,N-dimethylurea], the “inhibition” value is given as “significantly inhibited”, the “Total Distance within 61-150 minutes” value worked out at 171.78 ± 13.0 m and the “Improvement Rate” value is 12.27%.

Take `CN(C)C(=O)N[C@H]1CC[C@H](CCN2CCC(c3noc4cc(F)ccc34)CC2)CC1` [Compound 7, N′-[trans-4-[2-[4-(6-fluoro-benzo[d]isoxazol)-3-piperidyl]ethyl]cyclohexyl]-N,N-dimethylurea]: the “inhibition” value is given as “significantly inhibited”, the “Total Distance within 61-150 minutes” value is listed as 160.82 ± 12.91 m and the “Improvement Rate” value is recorded as 48.09%.

As for `Cc1ccc2c(N3CCN(CC[C@H]4CC[C@H](NC(=O)N(C)C)CC4)CC3)noc2c1` [Compound 14, N′-[trans-4-[2-[4-(6-methyl-benzo[d]isoxazol)-4-piperazinyl]ethyl]cyclohexyl]-N,N-dimethylurea], the “inhibition” value is given as “significantly inhibited”, the “Total Distance within 61-150 minutes” value was determined as 150.28 ± 11.70 m and the “Improvement Rate” value is reported as 51.49%.
